According to ChEMBL document CHEMBL1122787, “Acetylenic nucleosides. 3. Synthesis and biological activities of some 5-ethynylpyrimidine nucleosides” (1984):
Calls of active or inactive are those of the source. The rule behind the calls is not given here.

Key:
L1210 [1] = experiment: Compound was evaluated for antitumor activity against L-1210 cell lines in culture; format: functional, Mus musculus
B16 [2] = experiment: Compound was evaluated for antitumor activity against B16 melanoma cell lines in culture; format: functional, Mus musculus
[3] = Compound was evaluated for its concentration for antiviral activity against the replication of herpes simplex virus type 1 in monkey kidney cells; format: functional, Cercopithecidae
B16 [4] = experiment: Compound was evaluated for antitumor activity against B16 melanoma cell lines in culture; IN-Inactive at 10E-4 concentration; format: functional, cell-based; conditions: Mus musculus
L1210 [5] = experiment: Compound was evaluated for antitumor activity against L-1210 cell lines in culture; IN-Inactive at 10E-4 concentration; format: functional, cell-based; conditions: Mus musculus

What does the source list for `C#Cc1cn([C@@H]2O[C@H](CO)[C@@H](O)[C@@H]2F)c(=O)nc1N`?
Inhibition (L1210 [1]): ~60 µM; Inhibition (B16 [2]): ~60 µM; ID90 [3]: 50 µM

Which results are given for `C#Cc1cn([C@@H]2O[C@H](CO)[C@@H](O)[C@@H]2N=[N+]=[N-])c(=O)[nH]c1=O`?
Inhibition (B16 [4]): inactive; Inhibition (L1210 [5]): inactive
